Experimental data as given in patent US12501895B2, “Composition for cryopreservation of myocardial cells” (BEIJING BAHEAL WISART MEDICAL RESEARCH CO., LTD, priority 2020, dated 2025).

System: human cardiomyocytes
Assay: ex vivo culture of human cardiomyocytes for 7 days, rod-shaped rate (Example 4)
Assay type: cell-based
Conditions: 5-50 μM PAB versus 10 μM BLEB in M199 basal medium, cultured 7 days at 37° C., FIG. 4
Experimental: The purpose of this experiment was to investigate the effects of BLEB and PAB on cell survival rate and morphology during the ex vivo survival of cardiomyocytes, so as to predict the similarity of their roles during cryopreservation and resuscitation of cardiomyocytes.
10% fetal bovine serum, 100 U/ml penicillin and 100 μg/ml streptomycin were added to the M199 medium (purchased from Sigma Inc.), and the resulting medium was used as a basal medium. The experiments were divided into 6 groups, in which DMSO (as a control group), as well as 10 μM BLEB and 5 μM, 10 μM, 20 μM, and 50 μM PAB were added to the basal medium, respectively. The isolated human cardiomyocytes were divided into 6 groups, and the cells were plated on a 48-well cell culture plate coated with 200 μg/ml laminin in advance using 6 media, and the plate was placed and cultured in a cell incubator (with 5% CO2, and a relative saturated humidity of 95%) at 37° C. for 7 days.

SMILES: Cc1ccc2c(c1)C(=O)[C@]1(O)CCN(c3ccc(N)cc3)C1=N2 [PAB, para-aminoblebbistatin]
- rod-shaped rate of cardiomyocytes: close to or even better than the 10 μM BLEB group
